Test results published in US9572890B2, “Oral formulations of mitochondrially-targeted antioxidants and their preparation and use” (MITOTECH SA, priority 2011, dated 2017).

Legend:
[1] = Storage stability of reduced SkQ1H2 formulations (Example 9); format: physicochemical
Description: The sample also can be stabilized by being dissolved in any deoxygenated anhydrous and aprotic solvents.
The stability of SkQ1H2 in the prepared composition was investigated by storage at 4° C. in darkness (Table 12).
The stability of SkQ1H2 in the prepared composition was investigated by storage at 60° C. in darkness (Table 13).
The yield of SkQ1H2 was 2 g (approx 100% yield) in the form of light powder. The stability results are shown below (Table 14 and Table 15).
The stability of SkQ1H2 in the prepared composition was investigated by storage at 60° C. in darkness (Table 16).
The stability of SkQ1H2 in the compositions prepared by both methods was investigated by storage at 60° C. and 4° C. in darkness (Table 17).
The stability of SkQ1H2 in compositions prepared by Methods 3 and 4 was investigated by storage at 60° C. in darkness (Table 18).
The stability of SkQ1H2 in compositions prepared by both methods was investigated by storage at 60° C. in darkness (Table 18).
The stability of SkQ1H2 in the prepared solution was investigated by storage at RT in darkness (Table 19).
The stability of SkQ1H2 in the prepared solution was investigated by storage at 60° C. in darkness (Table 20).

[2] = Stability of MTAs in liquid solvents (degradation rate); format: physicochemical
Description: Liquid solvents were also tested for their ability to stabilize representative MTAs SkQ1 and SkQR1. The solvents tested were water solutions of glycerol (10% to 100%), 50% lactulose, and 1,2-propylene glycol (10% to 100%, at 60° C.). Some representative results are shown below (Table 1).

[3] = Stability in dark plastic or glass vials (light sensitivity); format: physicochemical
Description: Accordingly, one of the ways to further improve or increase stability of SkQ liquid compositions during storage and transportation is to protect it from light.

[4] = system: human endothelial cells EA.hy926; assay: TNF-α induced death of endothelial cells (MTT test); format: cell-based; details: 0.2 nM pre-incubation 4 d; TNF-α 0.25 to 50 ng/ml for 2 d
Description: Human endothelial cell line EA.hy926 (ATCC Collection; catalog number CRL-2922) was used as a model of vascular endothelium. This cell line is similar to primary HUVEC cell line (Edgell et al. (1983) PNAS, 80(12):3734-7; Edgell et al. (1990) In Vitro Cell Dev Biol., 26(12):1167-72) and widely used as a relevant model for inflammation studies (Riesbeck et al. (1998) Clin. Vaccine Immunol., 5:5675-682).
Accordingly, human endothelial cells EA.hy926 were pre-incubated with 0.2 nM SkQR1 or 2 nM SkQ1 solution in Dulbecco's Modified Eagle's Medium (DMEM) supplemented with 10% of fetal serum (Example 1) for 4 d. After that the cells were incubated overnight with fresh DMEM medium with 0.2% of fetal serum. The cells were incubated 2 d with TNF-α (0.25 ng/ml to 50 ng/ml) and cell death was monitored using standard MTT test (Berridge et al. (1996) Biochemica, 4:14-9). The data from this assay is shown as means±S.E. at least for 3 separate experiments.

[5] = SkQ1H2 in 55% EtOH in water, 0 h
[6] = SkQ1H2 in 55% EtOH in water, 0.5 h
[7] = SkQ1H2 in 55% EtOH in water, 1.48 h
[8] = SkQ1H2 in 55% EtOH in water, 2.8 h
[9] = SkQ1H2 in 55% EtOH in water, 3.44 h
[10] = SkQ1H2 in 55% EtOH in water, 4.37 h
[11] = SkQ1H2 in 55% EtOH in water, 23.23 h
[12] = SkQ1H2 in 55% EtOH in water, 143.45 h (~6 days)
[13] = SkQ1H2 in CH2Cl2, 143.45 h (~6 days)
[14] = SkQ1H2 powder, Storage at 60° C., day 0
[15] = SkQ1H2 powder, Storage at 60° C., day 5
[16] = SkQ1H2 powder, Storage at 60° C., day 7
[17] = SkQ1H2 powder, Storage at 60° C., day 11
[18] = SkQ1H2 powder, Storage at 60° C., day 17
[19] = SkQ1H2 powder, Storage at 60° C., day 28
[20] = SkQ1H2 powder, Storage at RT, day 0
[21] = SkQ1H2 powder, Storage at RT, day 3
[22] = SkQ1H2 powder, Storage at RT, day 5
[23] = SkQ1H2 powder, Storage at RT, day 7
[24] = SkQ1H2 powder, Storage at RT, day 11
[25] = SkQ1H2 powder, Storage at RT, day 17
[26] = SkQ1H2 powder, Storage at RT, day 28
[27] = SkQ1H2 with ascorbic acid (5 eq) and sorbite (30 wt parts), solid, time not given
[28] = SkQ1H2 with ascorbic acid (5 eq) and sorbite in 30% 1,2-propylene glycol, 60° C. in darkness, day 0
[29] = SkQ1H2 with ascorbic acid (5 eq) and sorbite in 30% 1,2-propylene glycol, 60° C. in darkness, day 3
[30] = SkQ1H2 with ascorbic acid (5 eq) and sorbite in 30% 1,2-propylene glycol, 60° C. in darkness, day 14
[31] = SkQ1H2 with ascorbic acid (5 eq) and sorbite in 30% 1,2-propylene glycol, 60° C. in darkness, day 27
[32] = SkQ1H2 with ascorbic acid (10 eq) in 55% EtOH, RT in darkness, 0 h
[33] = SkQ1H2 with ascorbic acid (10 eq) in 55% EtOH, RT in darkness, 1.5 h
[34] = SkQ1H2 with ascorbic acid (10 eq) in 55% EtOH, RT in darkness, 68 h (~3 days)
[35] = SkQ1H2 with ascorbic acid (10 eq) in 55% EtOH, RT in darkness, 118 h (~5 days)
[36] = SkQ1H2 with ascorbic acid (10 eq) in 55% EtOH, RT in darkness, 165 h (~7 days)
[37] = SkQ1H2 with sorbite (30 wt parts), solid, 60° C. in darkness, day 0
[38] = SkQ1H2 with sorbite (30 wt parts), solid, 60° C. in darkness, day 4
[39] = SkQ1H2 with sorbite (30 wt parts), solid, 60° C. in darkness, day 7
[40] = SkQ1H2 with sorbite (30 wt parts), solid, 60° C. in darkness, day 11
[41] = SkQ1H2 with sorbite (30 wt parts), solid, 60° C. in darkness, day 15
[42] = SkQ1H2 with sorbite (30 wt parts), solid, 60° C. in darkness, day 28

Cc1c(O)cc(CCCCCCCCCC[P+](c2ccccc2)(c2ccccc2)c2ccccc2)c(O)c1C [SkQ1H2]
stability of isolated SkQ1H2 light powder ([1]; 1 month at RT or several months at 4° C. in darkness under inert atmosphere without humidity access): excellent stability
SkQ1, % [1, 5]: 2.21%
SkQ1H2, % [1, 5]: 97.79%
SkQ1, % [1, 6]: 9.21%
SkQ1H2, % [1, 6]: 90.79%
SkQ1, % [1, 7]: 14.76%
SkQ1H2, % [1, 7]: 85.24%
SkQ1, % [1, 8]: 32.57%
SkQ1H2, % [1, 8]: 67.43%
SkQ1, % [1, 9]: 47.83%
SkQ1H2, % [1, 9]: 52.17%
SkQ1, % [1, 10]: 56.57%
SkQ1H2, % [1, 10]: 43.43%
SkQ1, % [1, 11]: 82.39%
SkQ1H2, % [1, 11]: 16.55%
SkQ1, % [1, 12]: 77.23%
SkQ1H2, % [1, 12]: 9.63%
SkQ1, % ([1]; SkQ1H2 in CH2Cl2, 0 h): 2.21%
SkQ1H2, % ([1]; SkQ1H2 in CH2Cl2, 0 h): 97.79%
SkQ1, % ([1]; SkQ1H2 in CH2Cl2, 0.5 h): 4.01%
SkQ1H2, % ([1]; SkQ1H2 in CH2Cl2, 0.5 h): 95.99%
SkQ1, % ([1]; SkQ1H2 in CH2Cl2, 1.48 h): 5.68%
SkQ1H2, % ([1]; SkQ1H2 in CH2Cl2, 1.48 h): 94.32%
SkQ1, % ([1]; SkQ1H2 in CH2Cl2, 2.8 h): 6.42%
SkQ1H2, % ([1]; SkQ1H2 in CH2Cl2, 2.8 h): 93.58%
SkQ1, % ([1]; SkQ1H2 in CH2Cl2, 3.44 h): 5.57%
SkQ1H2, % ([1]; SkQ1H2 in CH2Cl2, 3.44 h): 94.43%
SkQ1, % ([1]; SkQ1H2 in CH2Cl2, 4.37 h): 7.18%
SkQ1H2, % ([1]; SkQ1H2 in CH2Cl2, 4.37 h): 92.82%
SkQ1, % ([1]; SkQ1H2 in CH2Cl2, 23.23 h): 9.30%
SkQ1H2, % ([1]; SkQ1H2 in CH2Cl2, 23.23 h): 89.61%
SkQ1, % [1, 13]: 16.53%
SkQ1H2, % [1, 13]: 82.11%
SkQ1, % [1, 14]: 0.75%
SkQ1H2, % [1, 14]: 99.2%
SkQ1, % [1, 15]: 0.55%
SkQ1H2, % [1, 15]: 99.45%
SkQ1, % [1, 16]: 0%
SkQ1H2, % [1, 16]: 100%
SkQ1, % [1, 17]: 0.19%
SkQ1H2, % [1, 17]: 99.76%
SkQ1, % [1, 18]: 1.24%
SkQ1H2, % [1, 18]: 98.61%
SkQ1, % [1, 19]: 11.04%
SkQ1H2, % [1, 19]: 88.7%
SkQ1, % [1, 20]: 1.01%
SkQ1H2, % [1, 20]: 98.99%
SkQ1, % [1, 21]: 0.66%
SkQ1H2, % [1, 21]: 99.34%
SkQ1, % [1, 22]: 0.63%
SkQ1H2, % [1, 22]: 99.37%
SkQ1, % [1, 23]: 0.71%
SkQ1H2, % [1, 23]: 99.14%
SkQ1, % [1, 24]: 0.83%
SkQ1H2, % [1, 24]: 99.12%
SkQ1, % [1, 25]: 0.28%
SkQ1H2, % [1, 25]: 99.49%
SkQ1, % [1, 26]: 0.50%
SkQ1H2, % [1, 26]: 99.45%
number of impurities with content >0.5% ([1]; SkQ1H2 with ascorbic acid (5 eq) and sorbite (30 wt parts), solid, 1 year at 4° C. in darkness): 0
number of impurities with content >0.5% ([1]; SkQ1H2 with ascorbic acid (5 eq) and sorbite (30 wt parts), solid, 20 days at 60° C. in darkness): 0
SkQ1, % [1, 27]: 1.209%
SkQH2, % [1, 27]: 97.753%
SkQ1, % [1, 28]: 0.18%
SkQH2, % [1, 28]: 99.82%
SkQ1, % [1, 29]: 1.03%
SkQH2, % [1, 29]: 98.67%
SkQ1, % [1, 30]: 28.34%
SkQH2, % [1, 30]: 69.51%
SkQ1, % [1, 31]: 51.9%
SkQH2, % [1, 31]: 3.2%
SkQ1, % [1, 32]: 0.27%
SkQ1H2, % [1, 32]: 99.73%
SkQ1, % [1, 33]: 0.93%
SkQ1H2, % [1, 33]: 99.07%
SkQ1, % [1, 34]: 0.59%
SkQ1H2, % [1, 34]: 99.05%
SkQ1, % [1, 35]: 0.31%
SkQ1H2, % [1, 35]: 99.69%
SkQ1, % [1, 36]: 0.26%
SkQ1H2, % [1, 36]: 99.74%
SkQ1, % [1, 37]: 0.61%
SkQ1H2, % [1, 37]: 99.01%
SkQ1, % [1, 38]: 8.7%
SkQ1H2, % [1, 38]: 90.8%
SkQ1, % [1, 39]: 9.4%
SkQ1H2, % [1, 39]: 90.2%
SkQ1, % [1, 40]: 10.7%
SkQ1H2, % [1, 40]: 88.8%
SkQ1, % [1, 41]: 10.4%
SkQ1H2, % [1, 41]: 89.1%
SkQ1, % [1, 42]: 5.3%
SkQ1H2, % [1, 42]: 42.9%
oxidation to SkQ1 ([1]; exposed to air or wet atmosphere or dissolved in water or any protonic solvent): quickly oxides

COc1cc2c(cc1OC)-c1c(CC(=O)OCCCCCCCC3=CC(=O)C(C)=C(C)C3=O)c3ccc(OC)c(OC)c3c[n+]1CC2 [SkQBP1]
Degradation rate, percent per day ([2]; 400 mkM in 50% Glycerol): 0.08 percent per day

CC/N=c1/cc2oc3cc(NCC)c(C)cc3c(-c3ccccc3C(=O)OCCCCCCCCCCC3=CC(=O)C(C)=C(C)C3=O)c-2cc1C [SkQR1]
Degradation rate, percent per day ([2]; 100 mkM in 10% 1,2-propylene glycol, at 60° C.): 6.19 percent per day
Degradation rate, percent per day ([2]; 100 mkM in 20% 1,2-propylene glycol, at 60° C.): 0.34 percent per day
Degradation rate, percent per day ([2]; 100 mkM in 30% 1,2-propylene glycol, at 60° C.): 0.32 percent per day
Degradation rate, percent per day ([2]; 100 mkM in 40% 1,2-propylene glycol, at 60° C.): 0.06 percent per day
Degradation rate, percent per day ([2]; 100 mkM in 50% 1,2-propylene glycol, at 60° C.): <0.01 percent per day
Degradation rate, percent per day ([2]; 100 mkM in 60% 1,2-propylene glycol, at 60° C.): <0.01 percent per day
Degradation rate, percent per day ([2]; 100 mkM in 70% 1,2-propylene glycol, at 60° C.): 0.05 percent per day
Degradation rate, percent per day ([2]; 100 mkM in 80% 1,2-propylene glycol, at 60° C.): 0.23 percent per day
Degradation rate, percent per day ([2]; 100 mkM in 90% 1,2-propylene glycol, at 60° C.): 0.30 percent per day
Degradation rate, percent per day ([2]; 100 mkM in 100% 1,2-propylene glycol, at 60° C.): 0.23 percent per day
Degradation rate, percent per day ([2]; 140 mkM in 50% Glycerol): 0.7 percent per day
stability [3]: significantly increased
cell death compared to control without MTA [4]: greatly reduced
